Assay results as given in patent US20220241378A1, “COMPOSITIONS AND METHODS FOR TREATMENT OF CHRONIC GRANULOMATOUS DISEASE” (priority 2019, published 2022).

Tested on: C57BL/6 and p47phox-/- mice subjected to DSS-induced colitis
Assay: DSS-induced colitis in C57BL/6 and p47phox-/- mice
Type: in vivo
Procedure: In vivo models mimicking human pathology such as lung and gut inflammation were prepared. A model of lung inflammation was tested using C57BL/6 and p47phox-/- mice. The mice were infected with A. fumigatus intranasally and treated them with Tβ4 for 7 consecutive days starting a week after the infection. LC3-II (FIG. 1F) and DAPK1 (FIG. 1G) expression were both defective in p47phox-/- mice, but restored by Tβ4 and ablated (LC3-II) upon siTβ4 (FIGS. 10A and 10B). In addition, gut inflammation was tested using the same mouse model. Acute colitis in p47phox-/- mice was initiated by administering […] in drinking water for 7 days followed by 7 days of DSS-free autoclaved water. Subsequently, Tβ4 was therapeutically administered daily for 7 days, after DSS treatment, at the time at which mice started to lose weight. Consistent with previous findings (de Luca et al., 2014), LC3-II (FIG. 1H) and DAPK1 (FIG. 1I) expression were both defective in the colon ofp47phox-/- mice with colitis as opposed to WT mice but restored upon treatment with T134 (FIGS. 1H and 1I). DAPK1 expression in colon lysates of C57BL/6 and p47^phox-/- mice subjected to DSS-induced colitis for a week and treated intraperitoneally with 5 mg/kg Tβ4 for 7 consecutive days after DSS treatment, n=6-10 mice per group. Data are presented as mean ±SD and are representative of two experiments. Mice were categorized as Naive (uninfected or untreated mice) or None (infected mice). For immunoblotting, normalization was performed on mouse β-actin or Gapdh and corresponding pixel density or ratio is depicted. For immunofluorescence, nuclei were counterstained with DAPI. Photographs were taken with a high-resolution microscope (Olympus BX51), 40× and 100× magnification. LC3 mean fluorescence intensity (MFI) was measured with the ImageJ software. In FIGS. 1F-1H, n=6-10 mice per group. Data are presented as mean ±SD and are representative of two experiments. Naïve, uninfected or untreated mice. None, infected mice.
Dextran Sulfate Sodium (DSS) (2.5% wt/vol, […]; MP Biomedicals) was administered in drinking water ad libitum for 7 days. Fresh solution was replaced on day 3. Mice were injected with 5 mg/kg of Tβ4 every day intraperitoneally in concomitance with (days 0→7) or after (days 7→14) DSS administration. Control received the diluent alone. Weight loss, stool consistency, and faecal blood were recorded daily. Upon necropsy (7 and 14 days after DSS administration), tissues were collected for histology and cytokine analysis. Colonic sections were stained with Hematoxylin and Eosin. Colitis disease activity index was calculated daily for each mouse based on weight loss, occult blood, and stool consistency. A score of 1-4 was given for each parameter as described (McNamee et al., 2011 Interleukin 37 expression protects mice from colitis. Proc Natl Acad Sci U S A 108:16711-16716).
For immunoblotting, organs or cells were lysed in RIPA buffer. The lysate was separated in sodium dodecyl sulfate-polyacrylamide gel electrophoresis (SDS-PAGE) and transferred to a nitrocellulose membrane. The membranes were incubated with the following primary antibodies at 4 °C overnight: anti-DAPK1 (antibodies-online.com), anti-Rubicon (Cell Signaling), anti-Tβ4 and anti-NLRP3 (Abcam), anti-LC3B (Cell Signaling or Abcam). Normalization was performed by probing the membranes with mouse anti-β-actin and anti-Gapdh antibodies (Sigma-Aldrich). Normalization was performed on mouse β-actin or Gapdh and corresponding pixel density is depicted. LC3-II band density was normalized to LC3-I to obtain ratio. Chemiluminescence detection was performed with LiteAblot Plus chemiluminescence substrate (EuroClone S.p.A.), using the ChemiDocTM XRS+ Imaging System (Bio-Rad) and quantification was obtained by densitometry image analysis using Image Lab 5.1 software (Bio-Rad).
Real-time RT-PCR was performed using CFX96 Touch Real-Time PCR Detection System and SYBR Green chemistry (Bio-Rad). […]

Thymosin β4 [Tβ4]
HIF-1α expression in the colon (5 mg/kg i.p. 7 consecutive days after DSS (FIG. 2H)): restoration | weight change (Tβ4 5 mg/kg i.p. after DSS (FIG. 5A)): weight regain | disease activity index scores (Tβ4 5 mg/kg i.p. after DSS (FIG. 5B)): decreased | inflammatory pathology and tissue architecture (H&E colon histology) (Tβ4 5 mg/kg i.p. after DSS (FIG. 5C)): amelioration | NLRP3 expression in colon (Tβ4 5 mg/kg i.p. after DSS (FIG. 5D)): decreased | anti-inflammatory cytokines (TGF-β) (colon (FIG. 5G)): up-regulation | Cldn1 expression (colon (FIG. 5H)): greatly promoted | Ocln expression (colon (FIG. 5H)): greatly promoted | inflammatory cytokine levels (IL-1β, MPO, TNF-α, IL-17A) (colon homogenates (FIGS. 5E and 5F)): decreased | expression of angiogenesis-related genes (Angpt2, Tie2, Vegfa, Fgf2, Epo, Cxcr4) (colon homogenates of p47phox-/- mice (FIG. 3D)): upregulation | LC3-II expression in colon (p47phox-/- mice with colitis, 5 mg/kg i.p. 7 consecutive days after DSS (FIG. 1H)): restored | DAPK1 expression in colon (p47phox-/- mice with colitis, 5 mg/kg i.p. 7 consecutive days after DSS (FIG. 1I)): restored
